Results published in patent publication US20130005699A1, “METHODS AND PRODUCTS FOR TREATMENT OF DISEASES” (DMI ACQUISITION CORP., priority 2009, published 2013).
Where two headings read alike, the source gives them in different places.

Experiments:
[1] = system: Primary human umbilical vein endothelial cells (HUVECs); test: HUVEC cell proliferation (Celltiter 96 AQueous One Solution assay); format: cell-based
Experimental: Primary human umbilical vein endothelial cells (HUVECs) and EGM-2 growth medium were obtained from Cambrex (Walkersville, Md.). The cells were passaged in medium supplemented with 2% fetal calf serum (FCS) in tissue culture flasks at 37° C. and 5% CO2. Subculturing was performed using trypsin when 60-80% confluence was obtained as specified by the supplier.
Cryopreserved ampoules of passage 2 HUVECs were thawed and plated in 96 well tissue culture plates at 5,000 cells/cm^2. […] In short, medium was aspirated from each well and the cells were washed with 200 μl […] (HBSS) from Cambrex warmed to 37° C. 100 μl diluted celltiter solution (15 μl stock+85 μl EGM-2 containing 0.1% FCS) were added to each well and incubated for an additional 4 hours. Optical density was determined by microplate reader using a 530 nm filter after blank subtraction and data presented as OD±standard deviation.
All data are presented as representative experiment done in triplicate. Differences between subsets were analyzed using student t-test in Microsoft Excel. P<0.05 was considered statistically significant.

HUVECs = test: HUVEC tube formation on matrigel plugs; format: cell-based, human; settings: 18 hours, 5% FCS
Experimental: To investigate the formation of capillary-like structures by HUVECs, the Angiogenesis System Endothelial Cell Tube Formation Assay was purchased from BD Biosciences (San Jose, Calif.) and used according to the manufacturer's protocol. In brief, 100,000 HUVECs were seeded onto rehydrated matrigel plugs in 96 well tissue culture plates in the presence of 5% FCS to induce tube formation. […] After 18 hours the wells were photographed using a Kodak DCS Pro SLR/N digital camera (Rochester, N.Y.) mounted on an inverted microscope. Ethanol treated wells were included to determine if the vehicle had any effects on cell differentiation.

Akt = Akt phosphorylation (CASE ELISA kit for AKT S473) in retinal endothelial cells; format: cell-based, human; settings: 2 hours
Experimental: The cells were grown in a 25 cm^2 flask to near confluence in EGM-2 medium (Lonza, Walkersville, Md.) containing 2% fetal calf serum (Lonza). […] The plate was incubated at 37° C. with 5% CO2 for 24 hours. […] After this incubation, the cells were fixed immediately with 4% formaldehyde, refrigerated, and the extent of phosphorylation of Akt determined using the Akt Cellular Activation of Signaling ELISA Kit (CASE™ Kit for AKT 5473; SABiosciences, Frederick, Md.) following the manufacturer's protocols. The CASE™ Kit for AKT S473 quantifies the amount of activated (phosphorylated) Akt protein relative to total Akt protein in parallel assays using a conventional ELISA format with colorimetric detection. The Akt phosphorylation site is serine 473 and is recognized by one of the antibodies used in one of the two parallel assays to provide a measure of activated Akt protein. The other antibody used in the other parallel assay recognizes Akt to provide a measure of total Akt protein. Both primary antibodies are detected using a horseradish peroxidase-labeled secondary antibody. Addition of the manufacturer's Developing Solution for 10 minutes, followed by addition of the manufacturer's Stop Solution, produces the result which can be measured colorimetrically.

[2] = system: human retinal endothelial cells; test: ECIS resistance (Example 12), retinal cells
[3] = system: human retinal endothelial cells; test: Actin stress fiber formation (Example 11), retinal cells; settings: for F-actin staining pattern: danazol 1 μM alone
[4] = system: human renal glomerular microvascular endothelial cells; test: Actin stress fiber formation (Example 11), glomerular cells; settings: for F-actin staining pattern: danazol 1 μM alone
[5] = Homo sapiens, HUVEC, 24 h, read-out: percent inhibition
[6] = Homo sapiens, HUVEC, 48 h, read-out: percent inhibition
[7] = Homo sapiens, HUVEC, 72 h, read-out: inhibition
[8] = danazol 1 μM with TNFα 1 ng/ml, all times

Q: Which results are given for `C#C[C@]1(O)CC[C@H]2[C@@H]3CCC4=Cc5oncc5C[C@]4(C)[C@H]3CC[C@@]21C` [Danazol, 17α-pregna-2,4-dien-20-yno[2,3-d]-isoxazol-17β-ol]?
A: OD ([1]; 0.1 μM danazol, 72 hours, nil wells 1.113±0.054): 0.798±0.037; OD ([1]; 1 μM danazol, 48 hours, nil 0.629±0.095): 0.378±0.037; OD ([1]; 1 μM danazol, 72 hours, nil wells 1.113±0.054): 0.484±0.022; OD ([1]; 10 μM danazol, 24 hours, nil wells 0.414±0.06): 0.288±0.037; OD ([1]; 10 μM danazol, 48 hours, nil 0.629±0.095): 0.241±0.012; OD ([1]; 10 μM danazol, 72 hours, nil wells 1.113±0.054): 0.229±0.016; OD ([1]; 100 μM danazol, 24 hours, nil wells 0.414±0.06): 0.162±0.017; OD ([1]; 100 μM danazol, 48 hours, nil 0.629±0.095): 0.19±0.033; OD ([1]; 100 μM danazol, 72 hours, nil wells 1.113±0.054): 0.156±0.018; effect on cell proliferation ([1]; 100 μM danazol, all time points): complete arrest of cell proliferation; inhibition at 10 µM [1, 5]: 30%; inhibition at 100 µM [1, 5]: 65%; inhibition at 1 µM [1, 6]: 40%; inhibition at 10 µM [1, 6]: 61%; inhibition at 100 µM [1, 6]: 70%; inhibition at 0.1 µM ([1]; Homo sapiens, HUVEC, 72 h): 28%; inhibition at 1 µM [1, 7]: 57%; inhibition at 10 µM [1, 7]: 80%; inhibition at 100 µM [1, 7]: 86%; effect on tube formation (HUVECs; 1 μM): no effect on tube formation; effect on tube formation (HUVECs; 10 μM): no effect on tube formation; effect on tube formation (HUVECs; 50 μM): effective inhibitor of tube formation; PERCENT INCREASE IN AKT PHOSPHORYLATION VERSUS CONTROL (Akt; 0.5 μM danazol): 73.8%; PERCENT INCREASE IN AKT PHOSPHORYLATION VERSUS CONTROL (Akt; 1.0 μM danazol): 66.7%; PERCENT INCREASE IN AKT PHOSPHORYLATION VERSUS CONTROL (Akt; 2.0 μM danazol): 101.6%; PERCENT INCREASE IN AKT PHOSPHORYLATION VERSUS CONTROL (Akt; 5.0 μM danazol): 40.5%; PERCENT INCREASE IN AKT PHOSPHORYLATION VERSUS CONTROL (Akt; 10.0 μM danazol): 115.3%; PERCENT INCREASE IN AKT PHOSPHORYLATION VERSUS CONTROL (Akt; 20.0 μM danazol): 161.3%; PERCENT INCREASE IN AKT PHOSPHORYLATION VERSUS CONTROL (Akt; 50.0 μM danazol): 98.6%; start of increase of ECIS compared to untreated cells, after treatment ([2]; 1.0 μM danazol alone): 1.5 to 2.0 h; persistence of increased ECIS ([2]; 1 μM of each compound, monitored for 90 hours): 5 h; F-actin staining pattern ([3]; 15 minutes): perinuclear staining; F-actin staining pattern ([3]; 3 hours): diffuse staining throughout the cells with ruffled edges on many of the cells; F-actin staining pattern ([3]; 24 hours): staining similar to untreated controls; effect on S1P-induced cortical actin rings ([3]; danazol 1 μM with S1P 1 μM): seemed to enhance the cortical rings at 3 hours; effect on TNFα-induced stress fibers [3, 8]: decreased the stress fiber formation and/or the thickness of the fibers at all times; F-actin staining pattern ([4]; 15 minutes): perinuclear staining; F-actin staining pattern ([4]; 3 hours): diffuse staining throughout the cells with ruffled edges on many of the cells; F-actin staining pattern ([4]; 24 hours): staining similar to untreated controls; effect on S1P-induced cortical actin rings ([4]; danazol 1 μM with S1P 1 μM): seemed to enhance the cortical rings; effect on TNFα-induced stress fibers [4, 8]: decreased the stress fiber formation and the thickness of the fibers at all times
